Like-named read-outs stand apart in the source and are kept apart here.
Assays:
[1] = Flash point; type: physicochemical
[2] = Net heat of combustion (combustion calorimeter); type: physicochemical
Procedure: (§1) All chemicals and reagent grade solvents were obtained from commercial vendors and were used as received. ^1H and ^13C NMR spectra were obtained at room temperature on a Bruker AV400 MHz spectrometer, with chemical shifts (6) referenced to the residual solvent signal (^1H and ^13C). GC/MS analysis was carried out using a Hewlett-Packard 6890 GC system equipped with a Hewlett-Packard 5973 mass selective detector. FT-IR measurements were collected on a Perkin Elmer Spectrum Two FT-IR, where a drop of compound was pressed between two KBr plates. FTIR shifts were: very strong (vs), strong (s), medium (m), and weak (w). Combustion calorimeter measurements were performed using an IKA C1 compact combustion calorimeter, the NHOC was calculated by taking into consideration the hydrogen content and subtracting from the gross heat of combustion. DSC measurements were performed using a Netzsch DCS 204 F1 Phoenix. Viscosity and density measurements were performed using an Anton Paar SVM 3001. Elemental analysis was performed by Atlantic Microlabs. YSI measurements were conducted at Yale University.
(§2) Two additional factors to consider for diesel fuel formulation are density and net heat of combustion (NHOC). Typically, for a chemical compound to be able to be blended with diesel, it should not decrease the density of the fuel mixture below 0.82 g mL-^1, as the energy content of the fuel brought into the engine is dependent on the density of the fuel.^17, 25 Compounds 1-5 maintained densities slightly higher than that of biodiesel, H1-H3, and petroleum diesel. A related metric is the NHOC, which is a measure of the energy contained in a given quantity of a compound. Additionally reported in Table 2 is the lower heating value (LHV) of compounds 1-5. The LHV of a fuel is defined as the amount of heat released by combusting a specified quantity (initially at 25° C.) and returning the temperature of the combustion products to 150° C., which assumes the latent heat of vaporization of water in the reaction products is not recovered.

[3] = Kinematic viscosity (Anton Paar SVM 3001); type: physicochemical; conditions: 40° C.
Procedure: as §1
The physical properties of the five distinct dioxolanes obtained were analyzed to understand their potential as suitable fuel components.^4-5, 8, 16, 18-20 A tabulated summary of these properties are provided in Table 2. The first metric considered was viscosity. […] If a fuel's viscosity falls outside of the ASTM D 975 specification (>4 mm^2 s^−1), it often leads to poor atomization of the fuel, which results in poor combustion and a subsequent loss of power and decrease in fuel economy.^7 In this respect, compounds 1-5 could be used to thin biodiesel to meet standards for petroleum diesel.

[4] = Boiling point; type: physicochemical
[5] = Cloud point of dioxolane blends with 7-component surrogate diesel; type: physicochemical
Procedure: The dioxolanes were blended in percentages of 10%, 20%, or 30% with a 7-component surrogate diesel.
The values range from −9.9° C. to −13.3° C. The numbers of the samples correspond with the dioxolanes as-referenced in FIG. 30. Cloud point is a quality specification for diesel fuels. This is an indicator of the tendency of a fuel to form wax crystals when cold. These crystals can clog the atomizer that injects fuel into the combustion chamber of a diesel engine. Cloud point specifications are a maximum temperature. A material with lower cloud point is more desirable.

[6] = Density (Anton Paar SVM 3001); type: physicochemical; conditions: 25° C.
Procedure: as §1, §2

[7] = Water solubility; type: physicochemical
[8] = Lower heating value (LHV); type: physicochemical
Description: as §2

[9] = taken from references, cited from earlier work; for Freezing/MP: freezing point: first value of cell; for Freezing/MP: melting point: second value of cell
[10] = 25° C.; taken from references; cited from earlier work
[11] = 40° C.; taken from references; cited from earlier work
[12] = taken from references; cited from earlier work
[13] = 10% dioxolane in 7-component surrogate diesel (surrogate alone −10.5 ° C.)
[14] = 20% dioxolane in 7-component surrogate diesel (surrogate alone −10.5 ° C.)
[15] = 30% dioxolane in 7-component surrogate diesel (surrogate alone −10.5 ° C.)

Flash Point [1] [°C] | NHOC (net heat of combustion) [2] [mJ/L] | Viscosity [3] [mm^2 s^−1] | Boiling Point [4] [°C] | Cloud point of blend [5, 13] [°C] | Cloud point of blend [5, 14] [°C] | Cloud point of blend [5, 15] [°C] | Density [6] [g/mL] | solubility [7] [µg/mL] | LHV (lower heating value) [8] [mJ/kg] | Structure (SMILES) | Freezing/MP: freezing point [9] [°C] | Freezing/MP: melting point [9] [°C] | Density [10] [g/mL] | Viscosity [11] [mm^2 s^−1] | NHOC (net heat of combustion) [12] [mJ/L]
58.3 | 30.41 | 1.88 | 184 | −10.3 | −10.8 | −12.5 | 0.885 | < 40 | 34.36 | CCCCC(CC)C1OC(C)C(C)O1 (centres unmarked) [Compound 2, 2-(1-Ethylpentyl)-4,5-dimethyl-1,3-dioxolane] |  |  |  |  | 
69.5 | 29.20 | 1.49 | 177 | −10.1 | −10.8 | −10.4 | 0.887 | < 40 | 32.92 | CCCCCC1OC(C)C(C)O1 (centres unmarked) [Compound 4, 4,5-Dimethyl-2-pentyl-1,3-dioxolane] |  |  |  |  | 
 |  |  |  |  |  |  |  |  |  | CCCCCCCCCCCC1(C)OCCO1 [H3, 2-methyl-2-undecyl-1,3-dioxolane] | −25 | 0 | 0.883 | 4.98 | 32.28
54.4 | 29.45 | 1.26 | 174 | −10.3 | −10.8 | −10.8 | 0.893 | < 40 | 32.98 | CCC(CC)C1OC(C)C(C)O1 (centres unmarked) [Compound 1, 2-(1-Ethylpropyl)-4,5-dimethyl-1,3-dioxolane] |  |  |  |  | 
 |  |  |  |  |  |  |  |  |  | CCCCCCCCCCCC1(C)OCC(C)O1 (centres unmarked) [H2, 2,4-dimethyl-2-undecyl-1,3-dioxolane] | −48 | −14 | 0.872 | 5.15 | 31.99
42.5 | 27.67 | 0.94 | 161 | −11.5 | −12 | −13.3 | 0.894 | < 40 | 30.95 | CCCC1OC(C)C(C)O1 (centres unmarked) [Compound 3, 4,5-Dimethyl-2-propyl-1,3-dioxolane] |  |  |  |  | 
79.5 | 30.06 | 2.34 | 188 | −9.9 | −10.8 | −11.6 | 0.883 | < 40 | 34.04 | CCCCCCCC1OC(C)C(C)O1 (centres unmarked) [Compound 5, 4,5-Dimethyl-2-heptyl-1,3-dioxolane] |  |  |  |  | 
 |  |  |  |  |  |  |  |  |  | CCCCCCCCCCCC1(C)OC(C)C(C)O1 (centres unmarked) [H1, 2,4,5-trimethyl-2-undecyl-1,3-dioxolane] | −51 | −18 | 0.868 | 4.44 | 31.99

Reference: US20210107886A1, “PREPARATION OF CYCLIC ACETALS FOR FUEL” (TRIAD NATIONAL SECURITY, LLC, priority 2019, published 2021)
